Laboratory results as given in ChEMBL document CHEMBL2157907, “Optimization of anti-Trypanosoma cruzi oxadiazoles leads to identification of compounds with efficacy in infected mice” (Bioorg Med Chem, 2012).
The source made the active and inactive calls. No cut-off for these calls is given here.

Tests used:
[1] = Cytotoxicity against BALB/c mouse splenocytes after 24 hrs by [3H]-thymidine incorporation assay; assay type: cell-based, Splenocyte; details: read-out: LC50
Cruzipain = Cruzipain (Trypanosoma cruzi, UniProt P25779); assay: Inhibition of Trypanosoma cruzi cruzain using Z-Phe-Arg-aminomethylcoumarin as substrate after 10 mins
Cruzipain, sequence (P25779 whole entry): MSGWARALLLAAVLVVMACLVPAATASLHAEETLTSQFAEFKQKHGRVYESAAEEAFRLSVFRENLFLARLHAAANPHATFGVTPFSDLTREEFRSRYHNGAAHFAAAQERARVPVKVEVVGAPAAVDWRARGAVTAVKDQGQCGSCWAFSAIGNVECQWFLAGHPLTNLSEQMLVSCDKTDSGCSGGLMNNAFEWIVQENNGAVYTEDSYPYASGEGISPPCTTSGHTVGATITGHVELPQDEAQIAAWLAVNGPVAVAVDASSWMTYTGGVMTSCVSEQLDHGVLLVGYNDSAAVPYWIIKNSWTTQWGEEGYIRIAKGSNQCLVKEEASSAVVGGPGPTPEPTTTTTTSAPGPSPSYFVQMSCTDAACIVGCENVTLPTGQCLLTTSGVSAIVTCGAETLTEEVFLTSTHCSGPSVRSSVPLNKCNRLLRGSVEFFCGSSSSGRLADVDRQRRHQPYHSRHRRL

[2] = biological target: Cruzipain (Trypanosoma cruzi) (UniProt P25779); assay: Inhibition of Trypanosoma cruzi cruzain using Z-Phe-Arg-aminomethylcoumarin as substrate at 100 uM after 10 mins
Cruzipain (Trypanosoma cruzi), sequence (P25779 123-467 limits assumed): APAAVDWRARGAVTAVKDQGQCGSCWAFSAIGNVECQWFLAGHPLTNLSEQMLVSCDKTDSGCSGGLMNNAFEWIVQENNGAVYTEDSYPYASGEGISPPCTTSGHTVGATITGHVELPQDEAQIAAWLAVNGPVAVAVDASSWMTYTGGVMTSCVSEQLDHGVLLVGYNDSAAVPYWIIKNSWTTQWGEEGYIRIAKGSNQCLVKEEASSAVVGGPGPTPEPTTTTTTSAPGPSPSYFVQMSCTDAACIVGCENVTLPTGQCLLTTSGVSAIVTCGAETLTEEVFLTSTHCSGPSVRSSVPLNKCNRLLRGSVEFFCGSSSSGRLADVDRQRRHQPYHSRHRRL

Trypanosoma cruzi [3] = assay: Antitrypanosomal activity against epimastigotes of Trypanosoma cruzi Y after 5 days; assay type: functional, organism-based; details: 120 h
Trypanosoma cruzi [4] = assay: Antitrypanosomal activity against trypomastigotes of Trypanosoma cruzi Y infected in rhesus monkey LLC-MK2 cells assessed parasite viability after 24 hrs; assay type: functional, organism-based; details: LLC-MK2, 24 h
Trypanosoma cruzi [5] = assay: Antitrypanosomal activity against trypomastigotes of Trypanosoma cruzi Y infected in BALB/c mouse assessed as reduction of parasite level in blood at 100 mg/kg, po administered after 5 days of postinfection qd for 5 days; assay type: functional, organism-based; parameters: dose 100 mg/kg
Trypanosoma cruzi [6] = assay: Antitrypanosomal activity against trypomastigotes of Trypanosoma cruzi Y infected in BALB/c mouse peritoneal exudate macrophages assessed as reduction of parasite level at 10 ug/ml after 4 days; assay type: functional, organism-based
Trypanosoma cruzi [7] = assay: Induction of kinetoplast enlargement in trypomastigotes of Trypanosoma cruzi Y at 9.5 uM after 24 hrs by […] electron microscopic analysis; assay type: functional, organism-based
Trypanosoma cruzi [8] = assay: Induction of endoplasmic reticulum degeneration in trypomastigotes of Trypanosoma cruzi Y at 9.5 uM after 24 hrs by […] electron microscopic analysis; assay type: functional, organism-based
Trypanosoma cruzi [9] = assay: Induction of golgi apparatus degeneration in trypomastigotes of Trypanosoma cruzi Y at 9.5 uM after 24 hrs by […] electron microscopic analysis; assay type: functional, organism-based
Trypanosoma cruzi [10] = assay: Induction of mitochondria degeneration in trypomastigotes of Trypanosoma cruzi Y at 9.5 uM after 24 hrs by […] electron microscopic analysis; assay type: functional, organism-based
Trypanosoma cruzi [11] = assay: Induction of ultrastructural changes in trypomastigotes of Trypanosoma cruzi Y assessed as plasma membrane protrusions at 30 uM after 24 hrs by scanning electron microscopic analysis; assay type: functional
Trypanosoma cruzi [12] = assay: Antitrypanosomal activity against trypomastigotes of Trypanosoma cruzi Y in BALB/c mouse peritoneal exudate macrophages assessed as reduction of parasite infection to cells at 10 ug/ml treated simultaneously with parasite measured after 2 hrs; assay type: functional, organism-based
Trypanosoma cruzi [13] = assay: Antitrypanosomal activity against trypomastigotes of Trypanosoma cruzi Y infected in BALB/c mouse assessed as reduction of parasite level in blood at 50 mg/kg, po administered after 5 days of postinfection qd for 5 days; assay type: functional, organism-based; parameters: dose 50 mg/kg

| SMILES | CC50 at 24 h [1] [µg/mL] | IC50 (Cruzipain) [µM] | inhibition [2] [%] | IC50 (Trypanosoma cruzi [3]) [µM] | IC50 (Trypanosoma cruzi [4]) [µM] | other results |
| --- | --- | --- | --- | --- | --- | --- |
| COc1cc(/C=N/NC(=O)c2nc(-c3ccc(Cl)cc3)no2)ccc1O | > 100 | 0.04 | 92 | – | – | – |
| O=C(Cn1ccnc1[N+](=O)[O-])NCc1ccccc1 [BENZNIDAZOLE] | – | – | – | 7.5 | 11.3 | Activity (Trypanosoma cruzi [5]): Active |
| O=C(N/N=C/c1ccc2c(c1)OCO2)c1nc(-c2ccc(Br)cc2)no1 | > 100 | 0.03 | 95 | 14 | 13.4 | Activity (Trypanosoma cruzi [6]): inactive |
| COc1cc(/C=N/NC(=O)c2nc(-c3ccc([N+](=O)[O-])cc3)no2)ccc1O | > 100 | – | 47 | – | – | – |
| COc1ccc(-c2noc(C(=O)N/N=C/c3ccc(O)c(OC)c3)n2)cc1 | > 100 | – | 35 | – | – | – |
| COc1cc(/C=N/NC(=O)c2nc(-c3ccc(Br)cc3)no2)ccc1O | > 100 | 0.2 | 100 | – | – | – |
| O=C(N/N=C/c1ccc2c(c1)OCO2)c1nc(-c2ccc(F)cc2)no1 | > 100 | – | 34 | 12.2 | 9.5 | Activity (Trypanosoma cruzi [7]): Active; Activity (Trypanosoma cruzi [8]): Active; Activity (Trypanosoma cruzi [9]): Active; Activity (Trypanosoma cruzi [10]): Active; Activity (Trypanosoma cruzi [11]): 80%; Activity (Trypanosoma cruzi [12]): Active; Activity (Trypanosoma cruzi [6]): Active; Activity (Trypanosoma cruzi [13]): inactive |
| CN(C)c1ccc(C(=C2C=CC(=[N+](C)C)C=C2)c2ccc(N(C)C)cc2)cc1 [GENTIAN VIOLET] | 0.11 | – | – | – | – | – |
| COc1cc(/C=N/NC(=O)c2nc(-c3ccc(C)cc3)no2)ccc1O | > 100 | – | 14 | – | – | – |
